# Laboratory results: ChEMBL document CHEMBL5058541, “EUbOPEN Chemogenomics Library 2 (NanoBRET)” (2022)
# Tests used:
# [1] = target: YEATS domain-containing protein 4 (Homo sapiens) (UniProt O95619); assay: Thermal Shift Assay. Domain: start/stop V16-K225; conditions: Compound concentration 25.0 uM, Protein concentration 2.0 uM
# Peregrin (Homo sapiens) = target: T1, Peregrin (Homo sapiens) (UniProt P55201); conditions: Compound concentration 20.0 uM, Protein concentration 2.0 uM, Result type QC Liability
# T1 sequence (whole entry): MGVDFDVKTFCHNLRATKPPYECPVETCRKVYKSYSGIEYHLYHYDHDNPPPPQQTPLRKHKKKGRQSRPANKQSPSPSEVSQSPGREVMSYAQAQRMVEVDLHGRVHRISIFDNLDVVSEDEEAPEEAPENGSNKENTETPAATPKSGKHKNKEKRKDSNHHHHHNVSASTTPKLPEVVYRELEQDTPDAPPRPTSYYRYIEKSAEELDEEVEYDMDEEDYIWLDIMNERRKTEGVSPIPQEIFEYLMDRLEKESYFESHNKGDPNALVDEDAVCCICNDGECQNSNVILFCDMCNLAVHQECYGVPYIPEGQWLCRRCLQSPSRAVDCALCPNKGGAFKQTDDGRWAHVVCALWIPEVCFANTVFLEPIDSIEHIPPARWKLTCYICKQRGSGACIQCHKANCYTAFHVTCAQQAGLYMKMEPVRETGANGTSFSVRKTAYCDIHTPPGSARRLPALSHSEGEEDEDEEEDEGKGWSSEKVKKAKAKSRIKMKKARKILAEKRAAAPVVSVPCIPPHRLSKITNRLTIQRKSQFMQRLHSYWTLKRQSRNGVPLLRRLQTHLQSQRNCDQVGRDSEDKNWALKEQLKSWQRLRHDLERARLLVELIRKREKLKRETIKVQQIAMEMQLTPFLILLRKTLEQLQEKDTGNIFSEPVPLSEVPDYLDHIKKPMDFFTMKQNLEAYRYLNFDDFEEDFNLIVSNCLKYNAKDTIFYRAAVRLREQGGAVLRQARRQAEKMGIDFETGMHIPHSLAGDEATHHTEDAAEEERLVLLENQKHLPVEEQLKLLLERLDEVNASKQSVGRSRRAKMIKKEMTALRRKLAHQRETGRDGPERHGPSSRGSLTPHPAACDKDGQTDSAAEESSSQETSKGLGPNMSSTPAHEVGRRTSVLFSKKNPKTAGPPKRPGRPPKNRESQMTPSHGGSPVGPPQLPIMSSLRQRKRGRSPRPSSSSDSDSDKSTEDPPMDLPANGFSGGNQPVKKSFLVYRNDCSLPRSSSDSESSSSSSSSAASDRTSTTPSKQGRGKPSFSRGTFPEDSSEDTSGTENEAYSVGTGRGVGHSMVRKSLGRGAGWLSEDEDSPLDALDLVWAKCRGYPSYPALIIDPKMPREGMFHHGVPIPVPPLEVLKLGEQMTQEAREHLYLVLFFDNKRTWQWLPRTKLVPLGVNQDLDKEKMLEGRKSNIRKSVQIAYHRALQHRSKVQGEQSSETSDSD
# [2] = target: T2, Protein AF-9 (Homo sapiens) (UniProt P42568); conditions: Compound concentration 25.0 uM, Protein concentration 2.0 uM
# T2 sequence (whole entry): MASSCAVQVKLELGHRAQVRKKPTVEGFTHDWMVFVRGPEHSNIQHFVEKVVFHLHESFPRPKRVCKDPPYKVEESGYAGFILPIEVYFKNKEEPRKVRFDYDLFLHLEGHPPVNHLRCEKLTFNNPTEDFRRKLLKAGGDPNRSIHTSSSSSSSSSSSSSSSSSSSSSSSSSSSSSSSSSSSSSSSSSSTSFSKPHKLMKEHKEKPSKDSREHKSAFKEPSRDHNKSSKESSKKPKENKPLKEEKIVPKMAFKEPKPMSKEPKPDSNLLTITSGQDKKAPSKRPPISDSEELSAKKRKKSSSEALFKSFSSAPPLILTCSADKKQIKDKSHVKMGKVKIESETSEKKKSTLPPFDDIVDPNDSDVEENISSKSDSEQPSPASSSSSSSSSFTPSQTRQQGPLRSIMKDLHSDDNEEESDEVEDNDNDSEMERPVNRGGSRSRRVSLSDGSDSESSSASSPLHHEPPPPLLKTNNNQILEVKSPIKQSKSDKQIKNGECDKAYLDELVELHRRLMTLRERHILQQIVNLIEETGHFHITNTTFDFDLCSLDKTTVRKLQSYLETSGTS
# Description: Thermal Shift Assay. Domain: start/stop M1-D141
# Chain of YEATS domain-containing protein 4 (Homo sapiens) (O95619 whole entry, the tested form may be a part): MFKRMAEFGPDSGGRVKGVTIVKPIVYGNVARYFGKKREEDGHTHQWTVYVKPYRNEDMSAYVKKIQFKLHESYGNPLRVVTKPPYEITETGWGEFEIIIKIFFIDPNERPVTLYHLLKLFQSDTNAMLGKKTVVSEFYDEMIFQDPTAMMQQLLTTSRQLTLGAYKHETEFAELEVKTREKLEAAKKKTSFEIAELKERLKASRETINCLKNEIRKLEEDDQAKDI
smiles,measurement,setting,value
CN(C)C(=O)c1ccc(-c2cc(C(=O)N[C@@H]3CCc4ccccc43)no2)cc1O,ΔTm,[1],-0.19 c
same,ΔTm,Peregrin (Homo sapiens),-0.349 c
same,ΔTm,[2],5.15 c
